The record followed here is patent EP0059645A1, “Method and kit for identification of beta-lactamases” (NATIONAL RESEARCH DEVELOPMENT CORPORATION, priority 1981, dated 1982).

The target of data set [1] is Chromosomal, hyper-induced beta-lactamase enzyme (Escherichia coli, UniProt P00811). Nature of the data set: Competitive assay with nitrocefin (RSAI). Type of data set: biochemical, E. coli SNU35. Set-up: Normally, therefore, the beta-lactamase has to be extracted from the cells for the purpose of the present invention; endogenous in cells; host or cells: E. coli SNU 35 (artificially produced strain).

Another data set has as its system K10317. Nature of the data set: Competitive assay with nitrocefin (RSAI). Type of data set: biochemical, K.aerog. 10317.
The subject of data set [2] is HMS-1. In words: Competitive assay with nitrocefin (RSAI). The class given is biochemical, E. coli 1946.
In data set [3] the target is T1, Chromosomal, constitutive beta-lactamase enzyme (Enterobacter cloacae, UniProt P05364).
T1 construct: Normally, therefore, the beta-lactamase has to be extracted from the cells for the purpose of the present invention; endogenous in cells
In words: Competitive assay with nitrocefin (RSAI). The class given is biochemical, E. cloacae.

In data set [4] the target is T2, OXA-3 (Pseudomonas aeruginosa, UniProt Q51429). In words: Competitive assay with nitrocefin (RSAI). Type of data set: biochemical, E. coli R57B. Also on record: Normally, therefore, the beta-lactamase has to be extracted from the cells for the purpose of the present invention; endogenous in cells.
Data set [5] deals with T3, PSE-1 (Pseudomonas aeruginosa, UniProt Q03170). Nature of the data set: Competitive assay with nitrocefin (RSAI). Also on record: Normally, therefore, the beta-lactamase has to be extracted from the cells for the purpose of the present invention; endogenous in cells. Type of data set: biochemical, Ps.aerug. 1937E.
Data set [6] addresses T4, PSE-4 (Pseudomonas aeruginosa, UniProt P16897). Nature of the data set: Competitive assay with nitrocefin (RSAI). The class given is biochemical, Ps.aerug. 1559E. Also on record: Normally, therefore, the beta-lactamase has to be extracted from the cells for the purpose of the present invention; endogenous in cells.
Data set [7] concerns the target T5, TEM-1 (Escherichia coli, UniProt P62593). In words: Competitive assay with nitrocefin (RSAI). The class given is biochemical, E. coli 2136E. Also on record: the beta-lactamase has to be extracted from the cells for the purpose of the present invention; made in house; host or cells: E. coli 2136E (plasmid-bearing strain; crude cell extract).
In data set [8] the target is T6, Chromosomal, induced beta-lactamase enzyme (Pseudomonas aeruginosa, UniProt P24735).
T6 construct: Normally, therefore, the beta-lactamase has to be extracted from the cells for the purpose of the present invention; endogenous in cells; host or cells: Pseudomonas aeruginosa 1937E grown with ampicillin
In words: Competitive assay with nitrocefin (RSAI). Type of data set: biochemical, Ps.aerug. 1937E + ampicillin.

In data set [9] the target is T7, OXA-2 (Escherichia coli, UniProt P0A1V9). Nature of the data set: Competitive assay with nitrocefin (RSAI). Type of data set: biochemical, E. coli R46. Set-up: the beta-lactamase has to be extracted from the cells for the purpose of the present invention; made in house; host or cells: E. coli carrying R46 according to the earlier reading (crude cell extract).
Data set [10] deals with T8, SHV-1 (Escherichia coli, UniProt P0AD63). Nature of the data set: Competitive assay with nitrocefin (RSAI). The class given is biochemical, E. coli 2008E. Also on record: the beta-lactamase has to be extracted from the cells for the purpose of the present invention; made in house; host or cells: E. coli 2008E (crude cell extract).
Data set [11] concerns the target T9, TEM-2 (Escherichia coli, UniProt P62593, Q37K). In words: Competitive assay with nitrocefin (RSAI). The class given is biochemical, E. coli 1725E.
The next data set deals with K1073. In words: Competitive assay with nitrocefin (RSAI). Type of data set: biochemical, Klebsiella 1073.
Data set [12] has as its target T10, OXA-1 (Escherichia coli, UniProt P13661). Nature of the data set: Competitive assay with nitrocefin (RSAI). Type of data set: biochemical, E. coli 1527E. Set-up: the beta-lactamase has to be extracted from the cells for the purpose of the present invention; made in house; host or cells: E. coli 1527E according to the earlier reading (crude cell extract).
The target of a further data set is TEM-2 beta-lactamase (Escherichia coli, UniProt P62593, Q37K). The class given is biochemical, E. coli C9 RP4.
Data set [13] has as its system PSE-3. In words: Competitive assay with nitrocefin (RSAI). Type of data set: biochemical, Ps.aerug. 1920E.
In the next data set the test system is K17. Nature of the data set: Competitive assay with nitrocefin (RSAI). Type of data set: biochemical, Klebsiella 17.
Data set [14] has as its target T11, PSE-2 (Pseudomonas aeruginosa, UniProt P14489). Nature of the data set: Competitive assay with nitrocefin (RSAI). The class given is biochemical, Ps.aerug. 1973E. Set-up: Normally, therefore, the beta-lactamase has to be extracted from the cells for the purpose of the present invention; endogenous in cells.
The test system of data set [15] is O=C(Cc1cccs1)N[C@@H]1C(=O)N2C(C(=O)O)=C(C=Cc3ccc([N+](=O)[O-])cc3[N+](=O)[O-])CS[C@H]12. In words: purified protein, by the assay type. The following applies: pH 7.0; 37.0 °C.
For data set [16], the target named is T4, PSE-4. In words: 6-well visual test with nitrocefin. The following applies: 3 minutes, room temperature.
In data set [17] the test system is HMS-1. In words: 6-well visual test with nitrocefin. The following applies: 3 minutes, room temperature.
In data set [18] the target is T7, OXA-2. In words: 6-well visual test with nitrocefin. The conditions noted are these: 3 minutes, room temperature.
Data set [19] concerns the target T11, PSE-2. In words: 6-well visual test with nitrocefin. The conditions noted are these: 3 minutes, room temperature.
In data set [20] the target is T8, SHV-1. In words: 6-well visual test with nitrocefin. The following applies: 3 minutes, room temperature.
Data set [21] addresses T10, OXA-1. Nature of the data set: 6-well visual test with nitrocefin. The conditions noted are these: 3 minutes, room temperature.
Data set [22] deals with T2, OXA-3. Nature of the data set: 6-well visual test with nitrocefin. The conditions noted are these: 3 minutes, room temperature.
For a further data set, the target named is E. cloacae (Enterobacter cloacae, UniProt P05364). In words: 6-well visual test with nitrocefin. The following applies: 3 minutes, room temperature.
The test system of data set [23] is PSE-3. In words: 6-well visual test with nitrocefin. The conditions noted are these: 3 minutes, room temperature.
A further data set has as its target Ps +AMP (Chromosomal) (Pseudomonas aeruginosa, UniProt P24735). In words: 6-well visual test with nitrocefin. The following applies: 3 minutes, room temperature.
The target in data set [24] is T3, PSE-1. Nature of the data set: 6-well visual test with nitrocefin. The conditions noted are these: 3 minutes, room temperature.
In data set [25] the target is T9, TEM-2. In words: 6-well visual test with nitrocefin. The conditions noted are these: 3 minutes, room temperature.
The target of data set [26] is T5, TEM-1. In words: 6-well visual test with nitrocefin. The following applies: 3 minutes, room temperature.
[27] abbreviates: well C: Cefamandole 1:1 to nitrocefin.
[28] abbreviates: well B: Cefotaxime 100:1 to nitrocefin.

What is called Km is the substrate concentration at which the rate is half of its maximum.

Marks after values point to notes of the source that are not given here.

For `Cc1onc(-c2ccccc2Cl)c1C(=O)N[C@@H]1C(=O)N2[C@@H]1SC(C)(C)[C@@H]2C(=O)O` [Cloxacillin], the RSAI in [1] is 0.0000016*; with K10317, 3.7*; in the data set on HMS-1 [2] it was 0.02; in data set [3], 0.00004; on OXA-3 [4] it was 0.01; on PSE-1 [5], 2. Moreover, the RSAI on PSE-4 [6] stood at 3.3; at TEM-1 [7], 0.75; in data set [8], 0.00017; on OXA-2 [9], 30; at SHV-1 [10] it was 2; on TEM-2 [11], 0.5. Also, the RSAI in the data set with K1073 is 4*; at OXA-1 [12], 0.6; in the data set with PSE-3 [13], 0.24; in the data set on K17, 14; on PSE-2 [14], 4.5. Further, the “nature of the binding to the enzyme” value on TEM-2 beta-lactamase (from kinetics of nitrocefin cleavage) is “does not undergo irreversible binding”.
(Pseudomonas aeruginosa): the Km in [15] was determined as 28 µg/mL.
As for `CC1(C)S[C@@H]2[C@H](NC(=O)[C@H](N)c3ccccc3)C(=O)N2[C@H]1C(=O)O` [Ampi-cillin, ampicillin], the RSAI in data set [1] is given as 0.03*; in the data set with K10317, 9.4; with HMS-1 [2], 0.5; in data set [3], 0.02; on OXA-3 [4], 0.2; at PSE-1 [5] it was 0.4. In addition, the RSAI on PSE-4 [6] came out at 2.7; on TEM-1 [7], 4; in data set [8], 0.12; at OXA-2 [9] it was 10; at SHV-1 [10], 3; at TEM-2 [11], 2.6. Besides, the RSAI is listed as 6.7 in the data set on K1073; 4 on OXA-1 [12]; 1.3 at TEM-2 beta-lactamase (without pre-incubation, nitrocefin 50 micrograms/ml, after 4.5 minutes, 37°C); 1.7 in the data set on PSE-3 [13]; 2.9 in the data set on K17; 0.85 at PSE-2 [14].
For the compound `Cn1nnnc1SCC1=C(C(=O)O)N2C(=O)[C@@H](NC(=O)[C@H](O)c3ccccc3)[C@H]2SC1` [Cefaman-dole, Cefamandole], the RSAI is given as 0.12* in data set [1]; 5 in the data set with K10317; 0.5 in the data set on HMS-1 [2]; 0.03 in [3]; 0.75 at OXA-3 [4]; 6.9 on PSE-1 [5]. Also, the RSAI on PSE-4 [6] amounted to 9; at TEM-1 [7], 11; in data set [8], 5; on OXA-2 [9], 1.7; at SHV-1 [10], 6.6; on TEM-2 [11], 11. For the same compound, the RSAI was 3.9 with K1073; 1.5 at OXA-1 [12]; 0.006 in the data set with PSE-3 [13]; 1.8 with K17; 0.06 on PSE-2 [14]. Further, the “Score in 6-well visual test” value was “++” at PSE-4 [16] (setting [27]); “+” with HMS-1 [17] (setting [27]); “+” at OXA-2 [18] (setting [27]); “-” at PSE-2 [19] (setting [27]); “++” at SHV-1 [20] (setting [27]); “++” at OXA-1 [21] (setting [27]). Besides, the “Score in 6-well visual test” value at OXA-3 [22] (setting [27]) is “+”; on E. cloacae (setting [27]), “-”; in the data set on PSE-3 [23] (setting [27]) it was “-”; on Ps +AMP (Chromosomal) (setting [27]) it was “+”; at PSE-1 [24] (setting [27]), “++”; on TEM-2 [25] (setting [27]) it was “++”. Moreover, on TEM-1 [26] (setting [27]), the “Score in 6-well visual test” value was “++”.
For the compound `CO/N=C(\C(=O)N[C@@H]1C(=O)N2C(C(=O)O)=C(COC(C)=O)CS[C@H]12)c1csc(N)n1` [Cefotaxime], the RSAI in data set [1] was 0.004; in the data set with K10317 it was 320; in the data set with HMS-1 [2], 11; in data set [3], 0.0006; on OXA-3 [4], 15; on PSE-1 [5], 70. Moreover, the RSAI at PSE-4 [6] is reported as 50; at TEM-1 [7], 400; in data set [8], 0.004; on OXA-2 [9], 12; on SHV-1 [10], 400; at TEM-2 [11], 600. In addition, the RSAI is recorded as 330 with K1073; 9 on OXA-1 [12]; 100 in the data set on PSE-3 [13]; 60 in the data set with K17; 9.6 at PSE-2 [14]. Further, the “Score in 6-well visual test” value on PSE-4 [16] (setting [28]) is on record as “+”; with HMS-1 [17] (setting [28]), “-”; at OXA-2 [18] (setting [28]) it was “-”; at PSE-2 [19] (setting [28]), “-”; at SHV-1 [20] (setting [28]) it was “++”; at OXA-1 [21] (setting [28]) it was “-”. Moreover, the “Score in 6-well visual test” value on OXA-3 [22] (setting [28]) was “-”; on E. cloacae (setting [28]) it was “-”; with PSE-3 [23] (setting [28]), “+”; on Ps +AMP (Chromosomal) (setting [28]), “-”; on PSE-1 [24] (setting [28]), “+”; at TEM-2 [25] (setting [28]), “++”. In addition, the “Score in 6-well visual test” value at TEM-1 [26] (setting [28]) is reported as “++”.
